This test addresses T1, TLR7 (Homo sapiens, UniProt Q9NYK1).
T1 construct: Fresh blood was collected from normal human donors; endogenous in cells; host or cells: human PBMCs from fresh donor blood
T1 sequence (Q9NYK1 27-1049): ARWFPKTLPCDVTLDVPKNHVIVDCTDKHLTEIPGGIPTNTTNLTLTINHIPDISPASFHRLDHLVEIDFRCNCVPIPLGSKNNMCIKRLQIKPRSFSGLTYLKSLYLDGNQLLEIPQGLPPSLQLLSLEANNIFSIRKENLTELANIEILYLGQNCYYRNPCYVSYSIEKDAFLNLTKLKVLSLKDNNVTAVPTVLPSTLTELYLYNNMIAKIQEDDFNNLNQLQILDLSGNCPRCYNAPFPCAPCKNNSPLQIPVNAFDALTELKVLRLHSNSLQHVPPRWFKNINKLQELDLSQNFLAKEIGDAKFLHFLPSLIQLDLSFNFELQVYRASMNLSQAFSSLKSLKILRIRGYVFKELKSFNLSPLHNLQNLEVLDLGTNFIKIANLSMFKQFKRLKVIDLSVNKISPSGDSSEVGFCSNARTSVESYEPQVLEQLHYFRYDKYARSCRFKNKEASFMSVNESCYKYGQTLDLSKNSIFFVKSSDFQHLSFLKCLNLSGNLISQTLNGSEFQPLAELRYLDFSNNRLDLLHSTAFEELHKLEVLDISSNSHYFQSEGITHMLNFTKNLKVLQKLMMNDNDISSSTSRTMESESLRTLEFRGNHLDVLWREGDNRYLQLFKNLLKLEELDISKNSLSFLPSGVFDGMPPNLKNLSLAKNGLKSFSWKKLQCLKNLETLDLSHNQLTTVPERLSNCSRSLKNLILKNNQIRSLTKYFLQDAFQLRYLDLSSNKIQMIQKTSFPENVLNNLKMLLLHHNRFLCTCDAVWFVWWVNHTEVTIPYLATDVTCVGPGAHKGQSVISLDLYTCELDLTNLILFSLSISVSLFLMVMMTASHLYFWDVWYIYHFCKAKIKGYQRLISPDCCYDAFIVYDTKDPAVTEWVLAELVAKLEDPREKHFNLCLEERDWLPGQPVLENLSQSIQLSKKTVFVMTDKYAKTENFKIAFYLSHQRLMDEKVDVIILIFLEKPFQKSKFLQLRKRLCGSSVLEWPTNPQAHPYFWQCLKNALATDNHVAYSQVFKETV
The test is described as follows: huPBMC TLR7 Antagonist IFNα Assay. It is filed as cell-based. Particulars: human PBMCs stimulated with ssRNA40 10 μg/mL (DOTAP), 14-16 hrs; IFNα2b AlphaLISA read-out. In short, it runs like this: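 Human PBMCs from fresh donor blood (150,000 cells/well) stimulated 14–16 h at 37 °C with DOTAP-complexed ssRNA40 (final 1 μg/ml for TLR8, 10 μg/mL for TLR7) or ODN2216 (final 0.3 μM, TLR9), 0.25% DMSO, ten-point 1/3 compound dilutions. Supernatant IL-6 read by HTRF (TLR8); IFNα by IFNα2b AlphaLISA (TLR7/TLR9).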
Regarding `Cc1cc(N2CCc3c(c(C)nn3CC34CCC(NCC(=O)N5CCCC5)(CC3)CC4)C2)c2cnn(C)c2n1` [compound 106, 2-((4-((5-(1,6-dimethyl-1H-pyrazolo[3,4-b]pyridin-4-yl)-3-methyl-4,5,6,7-tetrahydro-1H-pyrazolo[4,3-c]pyridin-1-yl)methyl)bicyclo[2.2.2]octan-1-yl)amino)-1-(pyrrolidin-1-yl)ethanone], the half-inhibitory concentration (IC50) came to 0.063 µM.

Turning to `Cc1cc(N2CCc3c(c(C)nn3CC34CCC(N5CCO[C@H](C)C5)(CC3)CC4)C2)c2cnn(C)c2n1` [compound 107, (R)-4-(4-((5-(1,6-dimethyl-1H-pyrazolo[3,4-b]pyridin-4-yl)-3-methyl-4,5,6,7-tetrahydro-1H-pyrazolo[4,3-c]pyridin-1-yl)methyl)bicyclo[2.2.2]octan-1-yl)-2-methylmorpholine], the IC50 was 0.011 µM. In the case of `Cc1cc(N2CCc3c(c(C)nn3CC34CCC(N5CCO[C@@H](C)C5)(CC3)CC4)C2)c2cnn(C)c2n1` [compound 109, (S)-4-(4-((5-(1,6-dimethyl-1H-pyrazolo[3,4-b]pyridin-4-yl)-3-methyl-4,5,6,7-tetrahydro-1H-pyrazolo[4,3-c]pyridin-1-yl)methyl)bicyclo[2.2.2]octan-1-yl)-2-methylmorpholine] it was 0.012 µM; in that of `Cc1cc(N2CCc3c(c(C)nn3CC34CCC(N5C[C@@H](C)O[C@@H](C)C5)(CC3)CC4)C2)c2cnn(C)c2n1` [compound 110, (2S,6R)-4-(4-((5-(1,6-dimethyl-1H-pyrazolo[3,4-b]pyridin-4-yl)-3-methyl-4,5,6,7-tetrahydro-1H-pyrazolo[4,3-c]pyridin-1-yl)methyl)bicyclo[2.2.2]octan-1-yl)-2,6-dimethylmorpholine], 0.007 µM.

In the case of `Cc1cc(N2CCc3c(c(C)nn3CC34CCC(N5C[C@H](C)O[C@@H](C)C5)(CC3)CC4)C2)c2cnn(C)c2n1` [compound 111, (2S,6S)-4-(4-((5-(1,6-dimethyl-1H-pyrazolo[3,4-b]pyridin-4-yl)-3-methyl-4,5,6,7-tetrahydro-1H-pyrazolo[4,3-c]pyridin-1-yl)methyl)bicyclo[2.2.2]octan-1-yl)-2,6-dimethylmorpholine], the IC50 was 0.028 µM. The figure for `Cc1cc(N2CCc3c(c(C)nn3CC34CCC(NCC5CCC5)(CC3)CO4)C2)c2cnn(C)c2n1` [compound 112, N-(cyclobutylmethyl)-1-((5-(1,6-dimethyl-1H-pyrazolo[3,4-b]pyridin-4-yl)-3-methyl-4,5,6,7-tetrahydro-1H-pyrazolo[4,3-c]pyridin-1-yl)methyl)-2-oxabicyclo[2.2.2]octan-4-amine] is 0.024 µM; for `Cc1cc(N2CCc3c(c(C)nn3CC34CCC(N5C[C@@H](C)O[C@H](C)C5)(CC3)CC4)C2)c2cnn(C)c2n1` [compound 113, (2R,6R)-4-(4-((5-(1,6-dimethyl-1H-pyrazolo[3,4-b]pyridin-4-yl)-3-methyl-4,5,6,7-tetrahydro-1H-pyrazolo[4,3-c]pyridin-1-yl)methyl)bicyclo[2.2.2]octan-1-yl)-2,6-dimethylmorpholine] it is 0.053 µM; for `CCNCC(=O)NC12CCC(Cn3nc(C)c4c3CCN(c3cc(C)nc5c3cnn5C)C4)(CC1)CC2` [compound 114, N-(4-((5-(1,6-dimethyl-1H-pyrazolo[3,4-b]pyridin-4-yl)-3-methyl-4,5,6,7-tetrahydro-1H-pyrazolo[4,3-c]pyridin-1-yl)methyl)bicyclo[2.2.2]octan-1-yl)-2-(ethylamino)acetamide] it is 0.01 µM.

As for `Cc1cc(N2CCc3c(c(C)nn3CC34CCC(NC(=O)CCN)(CC3)CC4)C2)c2cnn(C)c2n1` [compound 115, 3-amino-N-(4-((5-(1,6-dimethyl-1H-pyrazolo[3,4-b]pyridin-4-yl)-3-methyl-4,5,6,7-tetrahydro-1H-pyrazolo[4,3-c]pyridin-1-yl)methyl)bicyclo[2.2.2]octan-1-yl)propanamide], the IC50 came to 0.01 µM. The figure for `Cc1cc(N2CCc3c(c(C)nn3CC34CCC(N5CC6(COC6)C5)(CC3)CC4)C2)c2cnn(C)c2n1` [compound 116, 6-(4-((5-(1,6-dimethyl-1H-pyrazolo[3,4-b]pyridin-4-yl)-3-methyl-4,5,6,7-tetrahydro-1H-pyrazolo[4,3-c]pyridin-1-yl)methyl)bicyclo[2.2.2]octan-1-yl)-2-oxa-6-azaspiro[3.3]heptane] is 0.009 µM. In the case of `CN[C@H](C)C(=O)NC12CCC(Cn3nc(C)c4c3CCN(c3cc(C)nc5c3cnn5C)C4)(CC1)CC2` [compound 117, (R)-N-(4-((5-(1,6-dimethyl-1H-pyrazolo[3,4-b]pyridin-4-yl)-3-methyl-4,5,6,7-tetrahydro-1H-pyrazolo[4,3-c]pyridin-1-yl)methyl)bicyclo[2.2.2]octan-1-yl)-2-(methylamino)propanamide] it was 0.002 µM. In the case of `CN[C@@H](C)C(=O)NC12CCC(Cn3nc(C)c4c3CCN(c3cc(C)nc5c3cnn5C)C4)(CC1)CC2` [compound 118] it was 0.002 µM; in that of `CNCC(=O)NC12CCC(Cn3nc(C)c4c3CCN(c3cc(C)nc5c3cnn5C)C4)(CC1)CC2` [compound 121, N-(4-((5-(1,6-dimethyl-1H-pyrazolo[3,4-b]pyridin-4-yl)-3-methyl-4,5,6,7-tetrahydro-1H-pyrazolo[4,3-c]pyridin-1-yl)methyl)bicyclo[2.2.2]octan-1-yl)-2-(methylamino)acetamide], 0.005 µM; in that of `Cc1cc(N2CCc3c(c(C)nn3CC34CCC(NCC(C)(C)O)(CC3)CC4)C2)c2cnn(C)c2n1` [compound 123, 1-((4-((5-(1,6-dimethyl-1H-pyrazolo[3,4-b]pyridin-4-yl)-3-methyl-4,5,6,7-tetrahydro-1H-pyrazolo[4,3-c]pyridin-1-yl)methyl)bicyclo[2.2.2]octan-1-yl)amino)-2-methylpropan-2-ol], 0.024 µM. `CCNCC(=O)NC12CCC(Cn3nc(C)c4c3CCN(c3cc(C)nc5cn[nH]c35)C4)(CC1)CC2` [compound 124, 2-(ethylamino)-N-(4-((3-methyl-5-(5-methyl-1H-pyrazolo[4,3-b]pyridin-7-yl)-4,5,6,7-tetrahydro-1H-pyrazolo[4,3-c]pyridin-1-yl)methyl)bicyclo[2.2.2]octan-1-yl)acetamide]: the 50% inhibitory concentration (IC50) amounted to 1.04 µM.

For `Cc1cc(N2CCc3c(c(C)nn3CC34CCC(NC(=O)C5CNCCO5)(CC3)CC4)C2)c2cnn(C)c2n1` (centres unmarked) [compound 125, N-(4-((5-(1,6-dimethyl-1H-pyrazolo[3,4-b]pyridin-4-yl)-3-methyl-4,5,6,7-tetrahydro-1H-pyrazolo[4,3-c]pyridin-1-yl)methyl)bicyclo[2.2.2]octan-1-yl)morpholine-2-carboxamide], the IC50 came out at 0.004 µM. The figure for `CCNCCC(=O)NC12CCC(Cn3nc(C)c4c3CCN(c3cc(C)nc5c3cnn5C)C4)(CC1)CC2` [compound 126, N-(4-((5-(1,6-dimethyl-1H-pyrazolo[3,4-b]pyridin-4-yl)-3-methyl-4,5,6,7-tetrahydro-1H-pyrazolo[4,3-c]pyridin-1-yl)methyl)bicyclo[2.2.2]octan-1-yl)-3-(ethylamino)propanamide] is 0.02 µM; for `CCNC12CCC(Cn3nc(C)c4c3CCN(c3ccnc(-c5ccccc5)c3)C4)(CC1)CC2` [compound 127, N-ethyl-4-((3-methyl-5-(2-phenylpyridin-4-yl)-4,5,6,7-tetrahydro-1H-pyrazolo[4,3-c]pyridin-1-yl)methyl)bicyclo[2.2.2]octan-1-amine] it is 0.259 µM. In the case of `Cc1cc(N2CCc3c(c(C)nn3CC34CCC(N5CCOC[C@@H]5C)(CC3)CC4)C2)c2cnn(C)c2n1` [compound 128, (S)-4-(4-((5-(1,6-dimethyl-1H-pyrazolo[3,4-b]pyridin-4-yl)-3-methyl-4,5,6,7-tetrahydro-1H-pyrazolo[4,3-c]pyridin-1-yl)methyl)bicyclo[2.2.2]octan-1-yl)-3-methylmorpholine] it was 0.006 µM; in that of `Cc1cc(N2CCc3c(c(C)nn3CC34CCC(N5CCOC[C@H]5C)(CC3)CC4)C2)c2cnn(C)c2n1` [compound 129, (R)-4-(4-((5-(1,6-dimethyl-1H-pyrazolo[3,4-b]pyridin-4-yl)-3-methyl-4,5,6,7-tetrahydro-1H-pyrazolo[4,3-c]pyridin-1-yl)methyl)bicyclo[2.2.2]octan-1-yl)-3-methylmorpholine], 0.008 µM.

These data come from US20240376099A1, “COMPOUNDS AND COMPOSITIONS AS INHIBITORS OF ENDOSOMAL TOLL-LIKE RECEPTORS” (Novartis AG, priority 2016, published 2024).
